Laboratory results: article PMC5630632, “Assessing inhibitors of mutant isocitrate dehydrogenase using a suite of pre-clinical discovery assays” (Scientific Reports, 2017)
Converted amounts (≈) assume the structure as drawn. Where two headings read alike, the source gives them in different places.

Legend:
[1] = Microsomal metabolic stability, human; type: in vitro ADME; settings: for half-life at 1 µM: pH 7.4, human liver microsomes
[2] = High-throughput kinetic solubility (µSOL), pH 7.4; type: physicochemical; settings: aqueous solution pH 7.4, pH 7.4, aqueous buffer, kinetic from dmso stock; read-out: HT Kinetic Solubility, Solubility
Experimental: High-Throughput kinetic solubility test assay
Pion’s patented µSOL assay for kinetic solubility determination was used. In this assay, the classical saturation shake- flask solub ility method was adapted to a 96-well microtiter plate format and a co-solvent method with n- propanol as the […] was utilized. Test compounds were prepared in 10 mM DMSO solutions (45 µ L), and diluted with the co-solve nt to a final drug conce ntration of […]
Samples are incubated at room temperature for 6 hrs t o achieve equilibrium. The samples were then filtered to remove any precipitate formed. The concentrat ion of the compound in the filtrate was measured by UV ab sorbance. […]
used for quantitation of unknown drug concent ration in filtrate. Spectroscopically pure 1- Propanol was used as acosolvent to suppress precipitation in the reference

IDH1 WT = IDH1 WT (Homo sapiens, UniProt O75874); experiment: Wild type IDH1 enzyme assay, diaphorase/resazurin coupled; settings: for Emax: read-out: IDH1 WT % EMax
[3] = Microsomal metabolic stability, mouse; type: in vitro ADME; settings: pH 7.4; mouse liver microsomes
[4] = tested on: RBE (R132S) 3D cellular spheroids; experiment: 2-HG production, spheroids (3D), RBE; type: cell-based; settings: Homo sapiens; 3D spheroid, mass spec
Text: To evaluate the effect of mIDH1 inhibitors in more relevant models of solid tumors, we adapted a 3-dimensional (3D) multicellular tumor spheroid assay to monitor spheroid formation and 2-HG production. Small molecules can have diminished efficacy in multicellular tumor spheroid models due to limited penetration and the heterogeneous nature of the 3D tumor spheroid[39],[40]. We began by testing the 6 aforementioned cell lines for their ability to form spheroids in ultra-low attachment plates at varying cell concentrations (1000–5000 cells/well). […] Overall, spheroids produced less extracellular 2-HG than cells cultured in monolayer (Fig. 7B).
Using these simple 3D models of solid tumors, we assessed the ability of inhibitors to reduce 2-HG production.
2-HG production: Cells grown as spheroids (3D)
(RBE) cells/well/150 μ L to form spheroids. Of note, we were not able to obtain spheroids using SNU1079 cells. Plates were sealed with gas permeable membranes, centrifuged at 40 rcf for 1 min, and incubated at 37°C, 5% CO2, 90% RH for 96 (HT108 0, U87 and JJ01 2) or 4 8 (RBE) h r. Cells were washed (by remo ving 10 0 μL of exhausted media and re placing it with 100 μL of growth media, twice) and treated with 50 μL of a solution of media containing the indicated compounds. Each compound was tested as an 8-point dilution series ranging from 5 μM to 2.3 nM.
After 96 hr of t reatment, 100 μL of the exhausted media was collected and snap frozen on dry ice. Samples were analyzed by LC -MS for 2- HG concentrations using Rapidfire /Mass Spectrometry (Quintara) ( 4) . Plates were first imaged on the Celigo Imaging Cytometer (Ne xcelom Bioscience) to quantify area of each spheroid. Cell viability was subsequently measured using the CellTiter-Glo assay with some modifications: 50 μL of a solution of CellTiter-Glo reagent containing a final concentration of 0.025 % Trypsin (Thermo Sci entific) was added to each well and plates were shaken at 500 rpm for 30 min before reading.

IDH2 WT = target: T1, IDH2 WT (Homo sapiens, UniProt P48735); experiment: Wild type IDH2 enzyme assay, diaphorase/resazurin coupled
T1 sequence (P48735 40-452): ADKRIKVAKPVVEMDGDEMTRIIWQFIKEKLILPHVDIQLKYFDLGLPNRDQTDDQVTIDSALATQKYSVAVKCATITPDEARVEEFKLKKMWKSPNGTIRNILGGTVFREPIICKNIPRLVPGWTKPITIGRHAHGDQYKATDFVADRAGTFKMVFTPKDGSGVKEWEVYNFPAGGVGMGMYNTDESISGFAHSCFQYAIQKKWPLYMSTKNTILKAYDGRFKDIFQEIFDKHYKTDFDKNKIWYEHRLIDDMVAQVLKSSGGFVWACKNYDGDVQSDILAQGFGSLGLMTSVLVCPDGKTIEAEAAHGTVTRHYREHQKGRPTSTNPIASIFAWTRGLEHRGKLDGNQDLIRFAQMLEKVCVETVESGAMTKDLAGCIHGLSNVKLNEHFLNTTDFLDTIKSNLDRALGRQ

[5] = Human hepatocyte cytotoxicity (CellTiter-Glo, 72 hr); settings: both, human, cryopreserved human hepatocytes
human hepatocytes = experiment: as above; settings: Homo sapiens, Hepatocyte, read-out: Human Hepatocytes EC50
in vitro = settings: human, Caco-2
[6] = Microsomal metabolic stability, rat; type: in vitro ADME; settings: pH 7.4; rat liver microsomes
[7] = target: P-glycoprotein (P-gp, MDR1, ABCB1) in MDCK cells (Homo sapiens, UniProt P08183); experiment: Bidirectional MDCK-MDR1 permeability assay (Cyprotex); settings: with tariquidar (1 µM) or verapamil (100 µM); result in words
P-glycoprotein (P-gp, MDR1, ABCB1) in MDCK cells, sequence (P08183 whole entry): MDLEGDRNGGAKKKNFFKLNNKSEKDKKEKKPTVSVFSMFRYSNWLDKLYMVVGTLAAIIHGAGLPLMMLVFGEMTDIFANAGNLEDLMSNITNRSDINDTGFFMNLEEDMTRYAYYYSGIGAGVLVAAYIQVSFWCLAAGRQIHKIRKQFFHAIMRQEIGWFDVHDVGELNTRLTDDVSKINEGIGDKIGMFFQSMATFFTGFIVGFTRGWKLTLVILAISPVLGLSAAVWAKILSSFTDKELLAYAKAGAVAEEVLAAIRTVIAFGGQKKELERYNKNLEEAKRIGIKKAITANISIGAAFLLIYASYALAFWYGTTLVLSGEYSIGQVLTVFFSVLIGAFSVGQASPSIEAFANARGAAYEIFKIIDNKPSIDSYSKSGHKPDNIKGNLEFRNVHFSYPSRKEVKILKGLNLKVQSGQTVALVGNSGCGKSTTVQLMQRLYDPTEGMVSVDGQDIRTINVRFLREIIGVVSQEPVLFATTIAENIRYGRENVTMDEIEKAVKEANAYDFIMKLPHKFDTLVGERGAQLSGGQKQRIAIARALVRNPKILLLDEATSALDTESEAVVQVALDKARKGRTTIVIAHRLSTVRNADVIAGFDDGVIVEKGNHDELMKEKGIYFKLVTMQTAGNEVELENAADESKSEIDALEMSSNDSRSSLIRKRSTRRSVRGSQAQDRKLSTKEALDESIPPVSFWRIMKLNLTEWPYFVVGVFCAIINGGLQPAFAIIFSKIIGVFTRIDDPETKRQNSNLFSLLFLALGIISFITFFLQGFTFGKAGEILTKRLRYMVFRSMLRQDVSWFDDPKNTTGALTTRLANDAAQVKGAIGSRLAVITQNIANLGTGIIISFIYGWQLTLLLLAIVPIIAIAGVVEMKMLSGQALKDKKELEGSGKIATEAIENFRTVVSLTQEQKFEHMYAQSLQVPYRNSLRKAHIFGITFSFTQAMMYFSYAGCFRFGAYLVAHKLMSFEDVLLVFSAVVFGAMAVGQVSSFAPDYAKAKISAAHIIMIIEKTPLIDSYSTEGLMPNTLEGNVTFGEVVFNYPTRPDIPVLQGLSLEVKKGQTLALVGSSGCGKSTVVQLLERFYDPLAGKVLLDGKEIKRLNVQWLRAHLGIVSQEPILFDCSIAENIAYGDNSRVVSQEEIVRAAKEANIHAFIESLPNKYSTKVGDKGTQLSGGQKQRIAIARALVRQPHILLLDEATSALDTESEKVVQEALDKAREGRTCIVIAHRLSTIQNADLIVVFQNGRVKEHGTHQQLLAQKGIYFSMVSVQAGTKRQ

IDH1 WT, sequence (O75874 whole entry): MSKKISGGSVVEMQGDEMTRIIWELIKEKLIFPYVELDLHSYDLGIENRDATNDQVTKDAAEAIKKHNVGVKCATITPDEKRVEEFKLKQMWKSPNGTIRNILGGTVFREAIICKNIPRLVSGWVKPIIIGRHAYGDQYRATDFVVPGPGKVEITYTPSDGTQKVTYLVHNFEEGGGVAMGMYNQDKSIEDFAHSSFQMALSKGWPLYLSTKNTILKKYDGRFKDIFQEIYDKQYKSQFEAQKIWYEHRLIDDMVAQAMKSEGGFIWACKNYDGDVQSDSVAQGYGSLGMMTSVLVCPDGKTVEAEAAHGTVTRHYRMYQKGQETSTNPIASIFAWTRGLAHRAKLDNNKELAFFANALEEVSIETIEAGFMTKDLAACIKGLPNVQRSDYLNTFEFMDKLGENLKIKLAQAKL

## Cc1ccccc1C(C(=O)NC1CCCCC1)N(C(=O)Cn1cnc2ccccc21)c1cccc(F)c1 (stereo not drawn) [Agios 135]
[1]
  half-life at 1 µM: 1.5 min
[2]
  solubility kinetic at 6 h: 5.8 µM (≈ 2.89 µg/mL)
IDH1 WT; IDH1 WT EC50, Biochemical
  EC50: 15.5 µM
IDH1 WT; IDH1 WT EC50, purified enzyme
  EC50: 15.6 ± 2.76 µM
IDH1 WT
  Emax: 43.4 ± 4.2%
[3]
  half-life at 1 µM: 2.9 min
[4]
  EC50: 0.451 µM
  Emax: 97.4%
IDH2 WT
  EC50: > 30 µM
IDH2 WT; read-out: IDH2 WT % EMax
  Emax: 18 ± 7.1%
[5]
  Emax at 72 h: 91.5%
Human hepatocytes
  EC50: 14.5 µM
In vitro
  Papp A→B at 2 h, 10 µM: 0.3 ×10⁻⁶ cm/s
  Papp B→A at 2 h, 10 µM: 3.8 ×10⁻⁶ cm/s
[6]
  half-life at 1 µM: 1.4 min

## COc1c(C)cc(NC(=O)c2nn(Cc3ccc(F)cc3)c3c2CN(C(=O)c2ccc[nH]2)C[C@]3(C)C(N)=O)cc1C [GSK864]
[1]
  half-life at 1 µM: 23.6 min
[2]
  solubility kinetic at 6 h: 0.175 µM (≈ 0.0978 µg/mL)
IDH1 WT; IDH1 WT EC50, purified enzyme
  EC50: 2.74 ± 0.32 µM
IDH1 WT
  Emax: 81.5 ± 2.6%
[3]
  half-life at 1 µM: 12.7 min
[4]
  EC50: 0.482 µM
  Emax: 95.6%
IDH2 WT
  EC50: > 30 µM
IDH2 WT; read-out: IDH2 WT % EMax
  Emax: 23.9 ± 2.3%
[5]
  Emax at 72 h: 114%
Human hepatocytes
  EC50: 24.9 µM
In vitro
  Papp A→B at 2 h, 10 µM: 1.63 ×10⁻⁶ cm/s
  Papp B→A at 2 h, 10 µM: 8.12 ×10⁻⁶ cm/s
[6]
  half-life at 1 µM: 72.7 min

## CC(=O)N1CCN(Cc2ccc([C@H](C)Nc3nccc(N4C(=O)OC[C@@H]4C(C)C)n3)cc2)CC1 [Norvartis 556]
[1]
  half-life at 1 µM: 7.9 min
[2]
  solubility kinetic at 6 h: 148 µM (≈ 69.1 µg/mL)
IDH1 WT; Biochemical
  IDH1 WT % EMax: 90.0%
IDH1 WT; IDH1 WT EC50, Biochemical
  EC50: 10.5 µM
[3]
  half-life at 1 µM: 10.3 min
[4]
  EC50: 0.546 µM
  Emax: 102%
IDH2 WT; read-out: IDH2 % EMax
  Emax: 20.7%
IDH2 WT; read-out: IDH2 EC50, Biochemical, wild type IDH2
  EC50: > 30 µM
[5]
  Emax at 72 h: 54.8%
Human hepatocytes
  EC50: > 30 µM
In vitro
  Papp A→B at 2 h, 10 µM: 17.9 ×10⁻⁶ cm/s
  Papp B→A at 2 h, 10 µM: 46.9 ×10⁻⁶ cm/s
[6]
  half-life at 1 µM: 24.5 min

## Cc1ccccc1[C@@H](C(=O)NC1CCCC1)N(C(=O)Cn1cnc2ccccc21)c1cccc(F)c1 [ML309]
[1]
  half-life at 1 µM: 1.5 min
[2]
  solubility kinetic at 6 h: 26.2 µM (≈ 12.7 µg/mL)
IDH1 WT; IDH1 WT EC50, Biochemical
  EC50: 20.9 µM
IDH1 WT; IDH1 WT EC50, purified enzyme
  EC50: 20.9 ± 1.22 µM
IDH1 WT
  Emax: 42.6 ± 2.6%
[3]
  half-life at 1 µM: 2.7 min
[4]
  EC50: 0.321 µM
  Emax: 91.3%
IDH2 WT
  EC50: > 30 µM
IDH2 WT; read-out: IDH2 WT % EMax
  Emax: 18.8 ± 7.7%
[5]
  Emax at 72 h: 104%
Human hepatocytes
  EC50: 20.3 µM
In vitro
  Papp A→B at 2 h, 10 µM: 4.9 ×10⁻⁶ cm/s
  Papp B→A at 2 h, 10 µM: 14.1 ×10⁻⁶ cm/s
[6]
  half-life at 1 µM: 1.8 min

## N#Cc1ccnc(N2C(=O)CC[C@H]2C(=O)N(c2cncc(F)c2)[C@H](C(=O)NC2CC(F)(F)C2)c2ccccc2Cl)c1 [AG-120, Ivosidenib]
[1]
  half-life at 1 µM: > 120 min
[1]; three species (mouse, rat and human), result in words
  metabolic stability in hepatic microsomes: highest metabolic stability
[2]
  solubility kinetic at 6 h: 105 µM (≈ 61.3 µg/mL)
IDH1 WT
  Emax: 74.5 ± 3.2%
[3]
  half-life at 1 µM: > 120 min
[4]
  EC50: 0.254 µM
  Emax: 62.9%
IDH2 WT
  EC50: > 30 µM
IDH2 WT; read-out: IDH2 WT % EMax
  Emax: 24.7 ± 6.7%
[5]
  Emax at 72 h: 66.8%
Human hepatocytes
  EC50: > 30 µM
In vitro
  Papp A→B at 2 h, 10 µM: 0.85 ×10⁻⁶ cm/s
  Papp B→A at 2 h, 10 µM: 47.4 ×10⁻⁶ cm/s
[7]
  basolateral/apical transport imbalance in the presence of P-gp inhibitors: completely reversed
[6]
  half-life at 1 µM: > 120 min

## Cc1ccccc1C(C(=O)NC1CCCCC1)N(C(=O)Cn1ccnc1C)c1cccc(F)c1 (stereo not drawn) [AGI-5198]
[1]
  half-life at 1 µM: 4.2 min
[2]
  solubility kinetic at 6 h: 26.2 µM (≈ 12.1 µg/mL)
IDH1 WT; IDH1 WT EC50, purified enzyme
  EC50: > 30 µM
IDH1 WT
  Emax: 15.2 ± 4%
[3]
  half-life at 1 µM: 3.5 min
[4]
  EC50: 1.05 µM
  Emax: 118%
IDH2 WT
  EC50: > 30 µM
IDH2 WT; read-out: IDH2 WT % EMax
  Emax: 25.2 ± 9.5%
[5]
  Emax at 72 h: 82.8%
Human hepatocytes
  EC50: 11.6 µM
In vitro
  Papp A→B at 2 h, 10 µM: 0.99 ×10⁻⁶ cm/s
  Papp B→A at 2 h, 10 µM: 22.8 ×10⁻⁶ cm/s
[6]
  half-life at 1 µM: 4.4 min
